Holding throughout (type): biochemical
The target in test [1] is T1, SIRT4 (Homo sapiens, UniProt Q9Y6E7).
T1 construct: 6xHis (followed by human rhinovirus 3C protease site) (N); made in house; host or cells: E. coli BL21(DE3), co-expressed with GroEL and GroES
T1 sequence (Q9Y6E7 33-314): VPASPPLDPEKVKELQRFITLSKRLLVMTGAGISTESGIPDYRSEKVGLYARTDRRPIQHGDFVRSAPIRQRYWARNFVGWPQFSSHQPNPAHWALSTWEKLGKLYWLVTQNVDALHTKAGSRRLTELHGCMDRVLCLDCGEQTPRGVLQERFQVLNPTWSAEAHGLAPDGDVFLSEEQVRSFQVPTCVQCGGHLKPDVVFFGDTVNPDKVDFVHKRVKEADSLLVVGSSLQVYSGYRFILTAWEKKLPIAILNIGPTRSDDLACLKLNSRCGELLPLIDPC
The test can be described thus: HPLC-based SIRT4 kinetics assays (steady-state, acyl-modified peptide substrates). The note with it: SIRT4 enzyme concentration = 5 μM; NAD 1 mM; 25° C. An excerpt: Recombinant SIRT4 protein expression and purification. N-terminally truncated human Sirt4 (33-314 of SEQ ID NO: 2) was cloned into a derivative of pET-15b containing a human rhinovirus 3C Protease cleavage site in place of its thrombin cleavage site. 6×His-Sirt4 was co-expressed with GroEL and GroES in BL21(DE3) E. coli in order to promote proper protein folding. Protein was purified using immobilized-metal affinity chromatography (IMAC) followed by anion-exchange chromatography to remove associated folding chaperones. For some experiments the His-tag was removed using 3C protease. Protein was concentrated, snap frozen in N2(l), and stored at −80° C. HPLC-based SIRT4 kinetics assays. SIRT4 kinetic assays were essentially performed as described by others^3,4. Briefly, enzyme reactions (20 μL) were performed in 50 mM Tris, pH 8.0, containing 5 μM recombinant SIRT4 and varying concentrations (0 to 2500 μM) of H3K9- or DLAT-modified peptides with either acetyl-lysine, biotinyl-lysine, or lipoyl-lysine. Reactions were initiated by addition of NAD (1 mM) and incubated at 25° C. for between 30-120 min, depending on substrate-specific reaction rates and to maintain steady-state conditions. Reactions were quenched with formic acid to a final concentration of 0.5% (v/v) and analyzed by HPLC-UV detection (Ultimate 3000 RSLC/VWD-3400). Substrate and product were separated by reverse-phase chromatography (Acclaim PepMap RSLC, 75 μm×15 cm) at 0.75 μL/min. Product concentration was measured by peak integration of A280 signals. Initial reaction velocities were determined in at least duplicate and fit to a modified Briggs-Haldane equation, which substituted kcat×[SIRT4] for Vmax and allowed determination of kinetic parameters, kcat, Km and kcat/Km and their associated error (±SEM), using GraphPad Prism 5. SIRT4's catalytic efficiency towards the various acyl-modified peptide substrates was assessed (Table 1 below).

Test [2] has as its target T1, SIRT4. The test is described as follows: LC-MS-based in vitro peptide deacylation assay. Particulars: 5 μM SIRT4, 10 uM peptide, with NAD, 1 hr at 37° C. An excerpt:
Recombinant SIRT4 protein expression and purification. N-terminally truncated human Sirt4 (33-314 of SEQ ID NO: 2) was cloned into a derivative of pET-15b containing a human rhinovirus 3C Protease cleavage site in place of its thrombin cleavage site. 6×His-Sirt4 was co-expressed with GroEL and GroES in BL21(DE3) E. coli in order to promote proper protein folding. Protein was purified using immobilized-metal affinity chromatography (IMAC) followed by anion-exchange chromatography to remove associated folding chaperones. For some experiments the His-tag was removed using 3C protease. Protein was concentrated, snap frozen in N2(l), and stored at −80° C.
LC-MS-based in vitro peptide deacylation assay. The ability of SIRT4 to hydrolyze various acyl-lysine modifications was measured using LC-MS. In 20 μL reaction volume, 10 uM peptide (lipoyl-, biotinyl-, or acetyl-lysine) was incubated with increasing concentrations of SIRT4 (0.5 μM, 2.5 μM, and 5 μM), with or without NAD, in 50 mM TrisHCl, pH 8, 137 mM NaCl, 2.7 mM KCl and 1 mM MgCl2, for 1 hr at 37° C. Reactions were quenched with 25 μL of 2% TFA and an internal control peptide was spiked in to monitor for run-to-run variability. Reaction products were desalted, eluted, concentrated and analyzed by nano-LC-MS/MS, as above, but altered LC gradients. A 30 min linear gradient from 4-40% B was used for all peptides, except for lipoyl-lysine biological peptides, which used a 12-70% B linear gradient. Data were imported into Skyline software (version 2.1) to obtain precursor extracted ion chromatographams (XICs) using the following settings: Isotope Count, 3; precursor mass analyzer, Orbitrap; Resolving power, 60,000 @ 400 Th. The retention times of substrate (modified) and product (unmodified) peptides were confirmed by fragmentation spectra and peak integration boundaries were manually inspected. Three biological replicates were analyzed for each reaction.
The lipoamide cofactor bound to E2 (transferase enzymes) is required for dehydrogenase complex activity (FIG. 1b). Given that other mitochondrial SIRTs can hydrolyze various […] group lysine modifications^3,4 and that all PDHC components were present in our SIRT4 isolation, we speculated that E2 dehydrogenase components may be biological substrates of SIRT4, and that SIRT4 may directly hydrolyze the lipoamid modification. To test this we screened the in vitro activity of recombinant SIRT4 against differentially-modified synthetic peptides (FIG. 10). Firstly, SIRT4 activity towards acyl-modified H3K9 peptides (SEQ ID NOs: 3-5) was measured using a liquid-chromatography (LC)-MS-based deacylation assay. SIRT4 was incubated with H3K9 peptides modified with acetyl-lysine (SEQ ID NO: 5), biotinyl-lysine (SEQ ID NO: 4) or lipoyl-lysine (SEQ ID NO: 3), in the presence or absence of NAD. Following reaction, the remaining unreacted substrates and newly generated unmodified peptides were identified and quantified by LC-MS (FIG. 2A, 2G-2I and FIG. 5). […] To compare the relative preference of SIRT4 for these different substrates, we used extracted ion chromatograms to quantify unreacted substrate (S) and product (P) amounts from all reactions, and represented the percentage of unmodified peptide generated (FIG. 2H). […] The relative amount of unmodified product generated using 5 μM SIRT4 was 11% (lipoyl—SEQ ID NO: 3), 3% (biotinyl—SEQ ID NO: 4) and 0.3% (acetyl—[…]) (FIG. 2B and FIG. 2H, H3K9 substrates). […]

Test [3] concerns purified porcine PDH. The test can be described thus: Immuno-capture activity assay of purified porcine PDH in vitro. Particulars: PDP1 0.1 μg/μL; recombinant SIRT4 50 μM + NAD 5 mM after PDP1. On the procedure: Purified porcine heart PDH pre-incubated at a final concentration of 1 μg/μl (10 and 25 μL reactions for PDH assay and Western blot, respectively) in 1×PDH assay buffer for 10 min at 30° C. containing 2 mM CaCl2), with or without 0.1 μg/μL of pyruvate dehydrogenase phosphatase catalytic subunit 1 (PDP1, Abcam, cat. #ab110357). To reactions that were treated with PDP1, either NAD alone (5 mM), recombinant SIRT4 (50 μM)+NAD (5 mM), or recombinant SIRT4 H161Y (50 μM)+NAD (5 mM) were added and incubated for an additional 1 hr at RT. 10 μL reactions were diluted with 400 μL of 1×PDH assay buffer and 2×200 μL were used to determine PDH activity. For Western blot analysis (25 μl reactions), 5 μg of purified porcine PDH was mixed in 1× reducing LDS sample buffer, heated at 70° C. for 10 min, resolved by SDS-PAGE, and then proteins were transferred to nitrocellulose membranes for detection of total E1α, pS232, pS293, and pS300 (see western immunoblotting above).
To characterize the impact of the observed in vitro activity, we next assessed whether SIRT4 could regulate the activity of PDH. We first used an immuno-capture assay to test the activity of purified porcine PDH in vitro (FIG. 14A). […] Therefore, we speculated that the reduction in activity may result from SIRT4 directly hydrolyzing the DLAT lipoamide.

Primed or numbered codes have the meaning given here. Ends that are not written are not given here. Peptide text beside a SMILES is read from it. * marks the point of attachment. ξ: configuration not given here. Biotin = O=C1N[C@H]2[C@H](CS[C@H]2CCCCC(=O)*)N1; lipoyl″ = O=C(CCCC[C@@H]1CCSS1)*; Lipoyl(6ξ) = O=C(CCCCC1CCSS1)*

The source of these data is patent publication US11726088B2, “Sirtuin 4 (SIRT4) lipoamidase activity and uses thereof” (THE TRUSTEES OF PRINCETON UNIVERSITY, priority 2014, dated 2023).

The term Km denotes the substrate concentration at which the rate is half of its maximum.

Take `CC[C@H](C)[C@H](NC(=O)[C@@H](NC(=O)[C@H](C)NC(=O)[C@H](CCCCNC(C)=O)NC(=O)[C@H](CC(=O)O)NC(=O)[C@@H](NC(=O)[C@H](CCC(=O)O)NC(=O)[C@@H](NC(=O)[C@@H](N)CCC(=O)O)[C@@H](C)CC)[C@@H](C)O)[C@@H](C)O)C(=O)NCC(=O)N[C@@H](Cc1c[nH]c2ccccc12)C(=O)O` [DLAT K259 Acetyl] (H-EIETDK(Ac)ATIGW-OH): the Km in test [1] is more than 2500 µM.

For the molecule `CC(=O)NCCCC[C@H](NC(=O)[C@H](CCCNC(=N)N)NC(=O)[C@H](C)NC(=O)[C@@H](NC(=O)[C@H](CCC(N)=O)NC(=O)[C@@H](N)CCCCN)[C@@H](C)O)C(=O)N[C@@H](CO)C(=O)N[C@H](C(=O)NCC(=O)NCC(=O)N[C@@H](Cc1c[nH]c2ccccc12)C(=O)N[C@@H](Cc1c[nH]c2ccccc12)C(=O)O)[C@@H](C)O` [H3 K9 Acetyl] (H-KQTARK(Ac)STGGWW-OH), in test [1], the Km is more than 2500 µM. Moreover, the “relative amount of unmodified product generated” value (shortened to “relative amount”) in test [2] was 0.3%.

Regarding `C[C@H](NC(=O)[C@@H](NC(=O)[C@H](CCC(N)=O)NC(=O)[C@@H](N)CCCCN)[C@@H](C)O)C(=O)N[C@@H](CCCNC(=N)N)C(=O)N[C@@H](CCCCNC(=O)CCCC[C@@H]1SC[C@@H]2NC(=O)N[C@@H]21)C(=O)N[C@@H](CO)C(=O)N[C@H](C(=O)NCC(=O)NCC(=O)N[C@@H](Cc1c[nH]c2ccccc12)C(=O)N[C@@H](Cc1c[nH]c2ccccc12)C(=O)O)[C@@H](C)O` [H3 K9 Biotinyl] (H-KQTARK(Biotin)STGGWW-OH), in test [1], the Km came out at 719 ± 79 µM. In addition, the “relative amount” value in test [2] worked out at 3%.

Turning to `C[C@H](NC(=O)[C@@H](NC(=O)[C@H](CCC(N)=O)NC(=O)[C@@H](N)CCCCN)[C@@H](C)O)C(=O)N[C@@H](CCCNC(=N)N)C(=O)N[C@@H](CCCCNC(=O)CCCCC1CCSS1)C(=O)N[C@@H](CO)C(=O)N[C@H](C(=O)NCC(=O)NCC(=O)N[C@@H](Cc1c[nH]c2ccccc12)C(=O)N[C@@H](Cc1c[nH]c2ccccc12)C(=O)O)[C@@H](C)O` (some centres unmarked) [H3 K9 Lipoyl] (H-KQTARK(Lipoyl(6ξ))STGGWW-OH), in test [1], the Michaelis-Menten constant (Km) was determined as 814 ± 163 µM. In test [2], the “relative amount” value is given as 11%.

As to “MCD K471 Acetyl: synthetic MCD K471 peptide SYLGSKNIKASEW with acetyl-lysine (SEQ ID NO: 29) (also: acetyl-lysine at K471, K6 or K9 not given here)”, in test [1], the Km was more than 2500 µM.

Turning to “PDHX: lipoyl-modified PDHX peptide substrate (SEQ ID NO: 12); unmodified product is SEQ ID NO: 13 (EIETDK(lipoyl″)AVVTWW)”, in test [2], the “relative amount” value worked out at 42%.

B1: PDP1: pyruvate dehydrogenase phosphatase catalytic subunit 1 (protein, UniProt Q9P0J1 72-537, looked up)
[Pyruvate dehydrogenase …: ASTPQKFYLTPPQVNSILKANEYSFKVPEFDGKNVSSILGFDSNQLPANAPIEDRRSAATCLQTRGMLLGVFDGHAGCACSQAVSERLFYYIAVSLLPHETLLEIENAVESGRALLPILQWHKHPNDYFSKEASKLYFNSLRTYWQELIDLNTGESTDIDVKEALINAFKRLDNDISLEAQVGDPNSFLNYLVLRVAFSGATACVAHVDGVDLHVANTGDSRAMLGVQEEDGSWSAVTLSNDHNAQNERELERLKLEHPKSEAKSVVKQDRLLGLLMPFRAFGDVKFKWSIDLQKRVIESGPDQLNDNEYTKFIPPNYHTPPYLTAEPEVTYHRLRPQDKFLVLATDGLWETMHRQDVVRIVGEYLTGMHHQQPIAVGGYKVTLGQMHGLLTERRTKMSSVFEDQNAATHLIRHAVGNNEFGTVDHERLSKMLSLPEELARMYRDDITIIVVQFNSHVVGAYQNQE
Take B1: the “activity of purified porcine PDH” value in test [3] is given as “elevated PDH activity”.

B2: SIRT4: N-terminally truncated recombinant human Sirt4 (33-314 of SEQ ID NO: 2) (protein, listed as Homo sapiens)
chain: T1 sequence (Q9Y6E7 33-314)
Take B2: the “activity of purified porcine PDH” value in test [3] was “able to attenuate PDH activity”.
